Laboratory results taken from patent publication US6335306B1, “Thermosensitive recording material of heat fixing type and method of fixing the same” (Oji Paper Co., Ltd., priority 1998, dated 2002).
Counter-ions that a name gives are not always drawn.

Test: Color Developer Test Method: solvent resistance of the color image, dioctyl phthalate (Mdd)
Assay type: physicochemical
Details: colored portion coated with dioctyl phthalate, wiped, left standing 0.5 hour; Macbeth RD-914
Description: (§1) Thermosensitive recording paper sheet is prepared by a process which will be described below.
(§2) The above-described composition is pulverized with a paint shaker to an average particle diameter of about 1 μm.
(§3) The above-described composition is pulverized with a paint shaker to an average particle diameter of not larger than 1 μm.
(§4) The above-described composition is pulverized with a paint shaker to an average particle article diameter of not larger than 1 μm.
(§5) A coating liquid is obtained by mixing 60 parts of the dispersion A, 240 parts of the dispersion B, 80 parts of the dispersion C, and 90 parts of 10% aqueous polyvinyl alcohol solution under stirring. The coating liquid thus obtained is applied to the support so that the amount of the coating after drying would be 8.0 g/m^2 to form a thermosensitive color image-forming layer, and thereby to obtain a thermosensitive recording paper.
(§6) The sample thus obtained is printed with a coloring tester (THPMD; a product of Ohkura Electric Co., Ltd.) under conditions comprising a printing voltage of 21.7 V and printing pulse of 1.0 ms. The color density of the printed parts is determined with a Macbeth Reflection Color Density Tester RD-914 (a product of Macbeth).
(§7) The colored portion of the thermosensitive recording material thus obtained in (5) is coated with dioctyl phthalate or salad oil, which is then removed by wiping with Klinex, followed by leaving it for standing for 0.5 hour and measuring the density of the printed parts is determined with a Macbeth Reflection Color Density Tester RD-914 (a product of Macbeth).
(§8) The solvent resistance of the color image formed by using the color developer can be evaluated based on the Macbeth density (hereinafter referred to as “Mdd”) of 0.2 or higher, preferably 0.4 or higher according to the Color Developer Test Method as stated above wherein dioctyl phthalate is used. The solvent resistance of the color image formed using the color developer can be evaluated based on the Macbeth density (hereinafter referred to as “Mds”) of 0.5 or higher, preferably 0.6 or higher according to the Color Developer Test Method as stated above wherein salad oil is used.

| Compound | Mdd (Macbeth density of the printed part after coating with dioctyl phthalate) |
| --- | --- |
| Cc1ccc(S(=O)(=O)NC(=O)Nc2ccc(Oc3cccc(Oc4ccc(NC(=O)NS(=O)(=O)c5ccc(C)cc5)cc4)c3)cc2)cc1 [1,3-bis(4′-(p-toluenesulfonylaminocarbonylamino)phenyloxy)benzene] | 1.0 |
| CC(C)(c1ccc(O)cc1)c1ccc(O)cc1 [2,2-bis(4-hydroxyphenyl)propane, reference compound] | 0.1 |
| Cc1ccc(S(=O)(=O)NC(=O)Nc2cccc(S(=O)(=O)c3cccc(NC(=O)NS(=O)(=O)c4ccc(C)cc4)c3)c2)cc1 [3,3′-bis(p-toluenesulfonylaminocarbonylamino)diphenylsulfone] | 0.63 |
| Cc1ccc(S(=O)(=O)NC(=O)Nc2ccc(S(=O)(=O)c3ccc(NC(=O)NS(=O)(=O)c4ccc(C)cc4)cc3)cc2)cc1 [4,4′-bis(p-toluenesulfonylaminocarbonylamino)diphenylsulfone] | 0.81 |

Continued, values first:

| Mdd (Macbeth density of the printed part after coating with dioctyl phthalate) | Compound |
| --- | --- |
| 0.93 | Cc1ccc(S(=O)(=O)NC(=O)Nc2ccc(Oc3cccc(NC(=O)NS(=O)(=O)c4ccc(C)cc4)c3)cc2)cc1 [3,4′-bis(p-toluenesulfonylaminocarbonylamino)diphenyl ether] |
| 0.8 | O=C(Nc1ccc(Cc2ccc(NC(=O)NS(=O)(=O)c3ccccc3)cc2)cc1)NS(=O)(=O)c1ccccc1 [4,4′-bis(benzenesulfonylaminocarbonylamino)diphenyl methane] |
| 1.0 | Cc1ccccc1S(=O)(=O)NC(=O)Nc1ccc(Cc2ccc(NC(=O)NS(=O)(=O)c3ccccc3C)cc2)cc1 [4,4′-bis(o-toluenesulfonylaminocarbonylamino)diphenyl methane] |
| 1.0 | Cc1ccc(S(=O)(=O)NC(=O)Nc2ccc(Oc3ccc(NC(=O)NS(=O)(=O)c4ccc(C)cc4)cc3)cc2)cc1 [4,4′-bis(p-toluenesulfonylaminocarbonylamino)diphenyl ether] |
| 0.96 | Cc1ccc(S(=O)(=O)NC(=O)Nc2ccc(Sc3ccc(NC(=O)NS(=O)(=O)c4ccc(C)cc4)cc3)cc2)cc1 [4,4′-bis(p-toluenesulfonylaminocarbonylamino)diphenyl sulfide] |
| 1.0 | Cc1ccc(S(=O)(=O)NC(=O)Nc2ccc(Cc3ccc(NC(=O)NS(=O)(=O)c4ccc(C)cc4)cc3)cc2)cc1 [4,4′-bis(p-toluenesulfonylaminocarbonylamino)diphenylmethane] |
| 0.5 | COc1ccc(OCCOc2ccc(C(=O)O)c(O)c2)cc1 [4-(2-(p-methoxyphenyloxy)ethyloxy)salicylic acid] |

Same assay, conditions: colored portion coated with dioctyl phthalate, wiped, left standing 0.5 hour; Macbeth RD-914; listed as 3,4′-bis(p-toluenesulfonylaminocarbonylamino)diphenyl ether

| Mdd (Macbeth density of the printed part after coating with dioctyl phthalate) | Compound |
| --- | --- |
| 1.0 | Cc1ccc(S(=O)(=O)NC(=O)Nc2ccc(Oc3cccc(NC(=O)NS(=O)(=O)c4ccc(C)cc4)c3)cc2)cc1 [3,4′-bis(p-toluenesulfonylaminocarbonylamino)diphenyl ether] |

Test: Color Developer Test Method: solvent resistance of the color image, salad oil (Mds)
Assay type: physicochemical
Details: colored portion coated with salad oil, wiped, left standing 0.5 hour; Macbeth RD-914
Description: as §1, §2, §3, §4, §5, §6, §7, §8

| Mds (Macbeth density of the printed part after coating with salad oil) | Compound |
| --- | --- |
| 1.2 | Cc1ccc(S(=O)(=O)NC(=O)Nc2cccc(NC(=O)NS(=O)(=O)c3ccc(C)cc3)c2)cc1 [1,3-bis(p-toluenesulfonylaminocarbonylamino)benzene] |
| 0.84 | Cc1ccc(S(=O)(=O)NC(=O)Nc2ccc(NC(=O)NS(=O)(=O)c3ccc(C)cc3)cc2)cc1 [1,4-bis(p-toluenesulfonylaminocarbonylamino)benzene] |
| 1.05 | Cc1ccc(S(=O)(=O)NC(=O)Nc2cccc3c(NC(=O)NS(=O)(=O)c4ccc(C)cc4)cccc23)cc1 [1,5-bis(p-toluenesulfonylaminocarbonylamino)naphthalene] |
| 0.73 | Cc1ccc(S(=O)(=O)NC(=O)Nc2cccc3cccc(NC(=O)NS(=O)(=O)c4ccc(C)cc4)c23)cc1 [1,8-bis(p-toluenesulfonylaminocarbonylamino)naphthalene] |
| 0.6 | O=S(=O)(c1ccccc1)c1ccc(O)c(S(=O)(=O)c2ccccc2)c1 [2,4-bis(phenylsulfonyl)phenol] |
| 0.5 | O=C(Nc1ccc(Cc2ccc(NC(=O)NS(=O)(=O)c3cccc4ccccc34)cc2)cc1)NS(=O)(=O)c1cccc2ccccc12 [4,4′-bis(1-naphthalenesulfonylaminocarbonylamino) diphenyl methane] |

Test: log P, OECD Chemical Test Guideline No. 117, partition coefficient
Details: OECD Guideline No. 117
Description: The log P in the present invention is a value determined according to OECD Test, Chemical Test Guideline No. 117, Partition Coefficient; edited by Chemical Product Examination Association). The log P is the logarithm of the partition coefficient P. The higher the value of the partition coefficient, the higher the hydrophobicity; and the lower thereof, the higher the hydrophilicity.

| log P | Compound |
| --- | --- |
| 3.3 | C=CCOc1ccc(S(=O)(=O)c2ccc(OCC=C)cc2)cc1 [4,4′-diallyloxydiphenylsulfone] |
| 5.8 | O=C(CCCCC(=O)OCc1ccccc1Cl)OCc1ccccc1Cl [di-o-chlorobenzyl adipate] |

Same assay, conditions: n-octanol/water

| Compound | chromatographic logP |
| --- | --- |
| Cc1cccc(OCCOc2cccc(C)c2)c1 [1,2-bis(m-tolyloxy)ethane] | 5 |
| Cc1ccc(Oc2ccc(Oc3ccc(C)cc3)cc2)cc1 [1,4-bis(p-tolyloxy)benzene] | 3.1 |
| c1ccc(OCCOc2ccc3ccccc3c2)cc1 [1-phenoxy-2-β-naphthoxyethane] | 5.2 |

Results, then the compound that gave them:

| chromatographic logP | Compound |
| --- | --- |
| 2.9 | COc1ccc(OCCOCCOc2ccc(OC)cc2)cc1 [bis(2-(4-methoxyphenoxy)ethyl) ether] |
| 5.7 | O=C(OCc1ccccc1)c1ccc(C(=O)OCc2ccccc2)cc1 [dibenzyl terephthalate] |
| 0.2 | CC(=O)CC(=O)Nc1ccccc1Cl [o-chloroacetoacetoanilide] |
| 6.3 | c1ccc(Cc2ccc(-c3ccccc3)cc2)cc1 [p-benzylbiphenyl] |
| 3.1 | Cc1ccc(OS(=O)(=O)c2c(C)cc(C)cc2C)cc1 [p-tolyl mesitylenesulfonate] |
| 5.1 | O=C(Oc1ccccc1)c1ccc2ccccc2c1O [phenyl 1-hydroxy-2-naphthoate] |

Same assay, conditions: n-octanol/water (OECD Test Guideline 117, HPLC method)

| Compound | chromatographic logP |
| --- | --- |
| c1ccc(OCCOc2ccccc2)cc1 [1,2-diphenoxyethane] | 3.6 |
| O=S(=O)(c1ccccc1)c1ccccc1 [diphenylsulfone] | 1.5 |

Next, values leading:

| chromatographic logP | Compound |
| --- | --- |
| 3.1 | O=C(OCc1ccccc1)C(=O)OCc1ccccc1 [dibenzyl oxalate] |
| 5.1 | O=C(Oc1ccccc1)c1ccc2ccccc2c1O [phenyl 1-hydroxy-2-naphthoate] |
| 3.1 | Cc1ccc(S(=O)(=O)Oc2ccccc2)cc1 [phenyl p-toluenesulfonate] |

Same assay, conditions: octanol/water

| Compound | chromatographic logP |
| --- | --- |
| Cc1ccc(CCc2ccc(C)c(C)c2)cc1C [1,2-bis(3,4-dimethylphenyl)ethane] | 7.8 |
| c1ccc(-c2cccc(-c3ccccc3)c2)cc1 [m-terphenyl] | 6.16 |
